The record followed here is ChEMBL document CHEMBL4680157, “Design, synthesis and biological evaluation of novel TRβ selective agonists sustained by ADME-toxicity analysis” (Eur J Med Chem, 2020).

Some results are limits rather than exact numbers.

By inhibition is commonly meant the share of the control response that was lost under treatment.

The nature of data set [1]: Cytotoxicity against human U2OS cells assessed as cell growth inhibition at 10 uM after 24 hrs relative to control. Format: cell-based.
A short description of data set [2]: Cytotoxicity against human U2OS cells assessed as cell growth inhibition at 10 uM after 48 hrs relative to control. Format: cell-based.
Data set [3] can be described thus: Cytotoxicity against human HEK293 cells assessed as cell growth inhibition at 10 uM after 24 hrs relative to control. Format: cell-based.
Data set [4] in a line: Cytotoxicity against human HEK293 cells assessed as cell growth inhibition at 10 uM after 48 hrs relative to control. Format: cell-based.
Data set [5] can be described thus: Cytotoxicity against human hTERT cells assessed as cell growth inhibition at 10 uM after 24 hrs relative to control. The format is cell-based, hTERT-BJ.
Data set [6] in a line: Cytotoxicity against human hTERT cells assessed as cell growth inhibition at 10 uM after 48 hrs relative to control. Format: cell-based, hTERT-BJ.
For the next data set, the target named is T1, CYP1A2 (Homo sapiens, UniProt P05177).
T1 sequence (P05177 whole entry): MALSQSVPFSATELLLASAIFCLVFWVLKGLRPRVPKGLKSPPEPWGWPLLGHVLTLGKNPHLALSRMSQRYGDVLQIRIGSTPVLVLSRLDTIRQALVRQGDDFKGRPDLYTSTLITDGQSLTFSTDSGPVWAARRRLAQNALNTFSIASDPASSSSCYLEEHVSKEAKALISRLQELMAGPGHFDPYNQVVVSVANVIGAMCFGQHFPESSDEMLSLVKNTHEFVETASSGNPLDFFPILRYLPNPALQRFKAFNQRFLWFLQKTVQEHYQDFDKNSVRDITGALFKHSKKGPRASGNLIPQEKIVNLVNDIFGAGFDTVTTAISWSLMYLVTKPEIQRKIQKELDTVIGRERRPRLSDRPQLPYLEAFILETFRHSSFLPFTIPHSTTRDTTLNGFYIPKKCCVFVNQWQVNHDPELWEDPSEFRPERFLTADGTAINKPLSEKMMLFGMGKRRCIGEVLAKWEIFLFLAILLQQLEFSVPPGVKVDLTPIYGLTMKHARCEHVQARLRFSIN
Nature of the data set: Inhibition of CYP1A2 (unknown origin) at 10 uM relative to control. Format: ADME.

The next data set addresses CYP2C9 (Homo sapiens, UniProt P11712). Nature of the data set: Inhibition of CYP2C9 (unknown origin) at 10 uM relative to control. The format is ADME.
A further data set addresses CYP2C19 (Homo sapiens, UniProt P33261). Nature of the data set: Inhibition of CYP2C19 (unknown origin) at 10 uM relative to control. Format: ADME.
Another data set has as its target hERG (KCNH2) (Homo sapiens, UniProt Q12809). Nature of the data set: Inhibition of human ERG at 10 uM by fluorescence polarization assay relative to control. For orientation: Polarisation of emitted light reports the rotation of a fluorescent probe.
The next data set has as its target T2, SIRT7 (Homo sapiens, UniProt Q9NRC8).
T2 sequence (Q9NRC8 whole entry): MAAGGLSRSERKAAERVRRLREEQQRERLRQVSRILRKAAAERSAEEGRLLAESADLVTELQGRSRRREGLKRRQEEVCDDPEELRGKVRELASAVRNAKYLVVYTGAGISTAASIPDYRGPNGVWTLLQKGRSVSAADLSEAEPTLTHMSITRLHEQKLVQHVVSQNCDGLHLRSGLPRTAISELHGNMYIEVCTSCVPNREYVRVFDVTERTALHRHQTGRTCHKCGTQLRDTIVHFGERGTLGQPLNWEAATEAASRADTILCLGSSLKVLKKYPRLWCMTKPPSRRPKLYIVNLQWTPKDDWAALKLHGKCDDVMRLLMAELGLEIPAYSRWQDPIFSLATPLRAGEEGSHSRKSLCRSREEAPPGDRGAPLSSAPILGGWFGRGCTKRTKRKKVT
Nature of the data set: Inhibition of SIRT7 (unknown origin) at 10 uM relative to control.

The next data set concerns the target HDAC4 (Homo sapiens, UniProt P56524). Nature of the data set: Inhibition of HDAC4 (unknown origin) at 10 uM relative to control.
For another data set, the target named is T3, HDAC6 (Homo sapiens, UniProt Q9UBN7).
T3 sequence (Q9UBN7 whole entry): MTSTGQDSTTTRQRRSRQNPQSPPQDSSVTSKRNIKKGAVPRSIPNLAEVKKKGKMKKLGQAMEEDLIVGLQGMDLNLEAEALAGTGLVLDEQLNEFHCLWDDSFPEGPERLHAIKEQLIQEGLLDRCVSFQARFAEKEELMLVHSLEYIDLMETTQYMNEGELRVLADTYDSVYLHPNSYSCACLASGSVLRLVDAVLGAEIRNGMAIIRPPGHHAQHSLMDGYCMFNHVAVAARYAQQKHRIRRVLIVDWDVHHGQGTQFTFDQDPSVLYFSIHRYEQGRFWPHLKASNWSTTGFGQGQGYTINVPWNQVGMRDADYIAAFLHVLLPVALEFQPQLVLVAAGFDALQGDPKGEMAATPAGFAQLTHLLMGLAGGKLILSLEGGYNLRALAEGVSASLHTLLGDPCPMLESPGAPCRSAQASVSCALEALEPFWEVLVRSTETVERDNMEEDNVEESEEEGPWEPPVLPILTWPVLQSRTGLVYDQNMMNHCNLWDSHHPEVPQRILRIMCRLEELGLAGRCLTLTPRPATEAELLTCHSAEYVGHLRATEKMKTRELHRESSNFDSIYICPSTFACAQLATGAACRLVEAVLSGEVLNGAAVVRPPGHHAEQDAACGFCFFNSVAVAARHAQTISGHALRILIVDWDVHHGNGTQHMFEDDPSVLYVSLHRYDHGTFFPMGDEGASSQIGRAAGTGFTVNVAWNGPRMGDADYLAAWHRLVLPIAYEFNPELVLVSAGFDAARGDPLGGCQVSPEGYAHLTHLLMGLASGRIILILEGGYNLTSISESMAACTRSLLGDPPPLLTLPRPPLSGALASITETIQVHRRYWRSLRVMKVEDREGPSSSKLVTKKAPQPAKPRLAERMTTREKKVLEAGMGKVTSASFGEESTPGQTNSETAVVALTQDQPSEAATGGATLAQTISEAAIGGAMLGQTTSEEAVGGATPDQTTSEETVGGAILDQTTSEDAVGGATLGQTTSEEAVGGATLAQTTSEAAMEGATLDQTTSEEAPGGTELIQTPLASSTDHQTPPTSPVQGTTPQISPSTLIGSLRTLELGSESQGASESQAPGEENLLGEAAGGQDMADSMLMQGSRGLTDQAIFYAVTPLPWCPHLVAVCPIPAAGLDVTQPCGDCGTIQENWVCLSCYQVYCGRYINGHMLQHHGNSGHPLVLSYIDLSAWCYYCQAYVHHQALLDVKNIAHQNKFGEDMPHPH
Nature of the data set: Inhibition of HDAC6 (unknown origin) at 10 uM relative to control.

A further data set concerns the target HDAC9 (Homo sapiens, UniProt Q9UKV0). Nature of the data set: Inhibition of HDAC9 (unknown origin) at 10 uM relative to control.
For data set [7], the target named is 3',5'-cyclic-AMP phosphodiesterase 4C (Homo sapiens) (UniProt Q08493). Nature of the data set: Inhibition of PDE4C1 (unknown origin) at 10 uM relative to control.
For the next data set, the target named is Aurora B (Homo sapiens, UniProt Q96GD4). Nature of the data set: Inhibition of Aurora B (unknown origin) at 10 uM relative to control.
Sequence of Aurora B (Q96GD4 whole entry): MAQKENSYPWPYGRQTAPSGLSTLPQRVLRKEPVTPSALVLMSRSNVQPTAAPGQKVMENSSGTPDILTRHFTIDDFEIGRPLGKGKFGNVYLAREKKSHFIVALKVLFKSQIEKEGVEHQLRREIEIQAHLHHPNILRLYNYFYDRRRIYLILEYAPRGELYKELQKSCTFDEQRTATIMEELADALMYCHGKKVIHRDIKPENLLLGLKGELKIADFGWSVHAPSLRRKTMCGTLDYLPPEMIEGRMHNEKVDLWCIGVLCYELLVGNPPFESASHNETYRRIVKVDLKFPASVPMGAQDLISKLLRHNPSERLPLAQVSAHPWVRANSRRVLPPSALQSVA

Sequence of HDAC9 (Q9UKV0 whole entry): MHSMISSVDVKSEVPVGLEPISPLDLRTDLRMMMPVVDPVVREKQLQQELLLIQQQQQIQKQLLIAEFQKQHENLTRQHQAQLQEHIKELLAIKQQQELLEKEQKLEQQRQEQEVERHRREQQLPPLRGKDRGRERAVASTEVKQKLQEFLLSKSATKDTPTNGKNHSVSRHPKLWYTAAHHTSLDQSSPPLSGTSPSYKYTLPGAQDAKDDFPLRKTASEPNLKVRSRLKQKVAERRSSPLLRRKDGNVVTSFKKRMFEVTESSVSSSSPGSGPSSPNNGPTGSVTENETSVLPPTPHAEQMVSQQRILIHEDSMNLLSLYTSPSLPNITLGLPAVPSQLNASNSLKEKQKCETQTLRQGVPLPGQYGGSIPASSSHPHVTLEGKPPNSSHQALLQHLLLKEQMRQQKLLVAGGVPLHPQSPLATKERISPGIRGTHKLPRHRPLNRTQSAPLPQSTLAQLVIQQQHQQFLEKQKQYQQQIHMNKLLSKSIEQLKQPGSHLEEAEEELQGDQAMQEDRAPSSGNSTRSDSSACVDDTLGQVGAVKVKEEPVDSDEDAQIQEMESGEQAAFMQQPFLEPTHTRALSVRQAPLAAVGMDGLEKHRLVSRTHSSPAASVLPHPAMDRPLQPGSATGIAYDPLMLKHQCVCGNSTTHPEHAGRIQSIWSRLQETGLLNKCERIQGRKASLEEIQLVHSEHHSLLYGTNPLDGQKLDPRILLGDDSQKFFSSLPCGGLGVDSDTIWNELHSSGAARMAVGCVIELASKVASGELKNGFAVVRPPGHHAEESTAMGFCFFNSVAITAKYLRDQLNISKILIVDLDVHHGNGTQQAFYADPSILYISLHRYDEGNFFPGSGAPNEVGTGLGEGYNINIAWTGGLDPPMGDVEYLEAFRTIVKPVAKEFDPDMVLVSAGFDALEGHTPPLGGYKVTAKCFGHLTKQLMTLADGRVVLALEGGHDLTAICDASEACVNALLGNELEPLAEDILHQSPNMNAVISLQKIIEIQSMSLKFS
Sequence of hERG (KCNH2) (Q12809 whole entry): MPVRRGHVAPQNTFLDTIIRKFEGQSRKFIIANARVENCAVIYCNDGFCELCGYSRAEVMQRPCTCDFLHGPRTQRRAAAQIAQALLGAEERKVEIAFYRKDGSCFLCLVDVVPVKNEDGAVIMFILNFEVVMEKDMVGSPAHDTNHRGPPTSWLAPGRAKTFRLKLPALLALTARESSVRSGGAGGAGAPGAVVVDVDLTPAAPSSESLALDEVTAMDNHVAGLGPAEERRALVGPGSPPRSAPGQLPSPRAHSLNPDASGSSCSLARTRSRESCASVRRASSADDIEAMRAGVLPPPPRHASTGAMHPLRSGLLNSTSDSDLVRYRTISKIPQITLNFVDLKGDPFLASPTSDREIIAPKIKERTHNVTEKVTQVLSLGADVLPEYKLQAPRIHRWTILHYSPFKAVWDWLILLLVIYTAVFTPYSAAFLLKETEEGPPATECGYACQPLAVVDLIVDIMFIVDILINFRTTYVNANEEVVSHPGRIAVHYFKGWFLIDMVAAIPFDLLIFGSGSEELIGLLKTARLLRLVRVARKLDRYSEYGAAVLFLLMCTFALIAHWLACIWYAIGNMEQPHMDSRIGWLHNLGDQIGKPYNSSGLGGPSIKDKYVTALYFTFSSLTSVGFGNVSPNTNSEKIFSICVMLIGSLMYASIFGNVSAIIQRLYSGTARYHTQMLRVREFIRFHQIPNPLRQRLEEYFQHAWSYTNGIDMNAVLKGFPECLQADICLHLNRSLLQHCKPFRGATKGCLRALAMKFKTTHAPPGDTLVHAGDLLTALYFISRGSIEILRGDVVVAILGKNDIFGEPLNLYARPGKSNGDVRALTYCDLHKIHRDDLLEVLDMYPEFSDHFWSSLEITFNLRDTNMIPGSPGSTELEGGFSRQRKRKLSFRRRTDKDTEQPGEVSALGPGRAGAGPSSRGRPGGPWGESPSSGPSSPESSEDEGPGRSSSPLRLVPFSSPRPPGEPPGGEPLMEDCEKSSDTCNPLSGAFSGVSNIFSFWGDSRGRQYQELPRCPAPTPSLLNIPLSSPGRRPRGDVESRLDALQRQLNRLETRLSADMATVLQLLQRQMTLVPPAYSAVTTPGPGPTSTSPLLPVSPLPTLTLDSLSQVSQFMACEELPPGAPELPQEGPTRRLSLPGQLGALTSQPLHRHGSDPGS
Sequence of 3',5'-cyclic-AMP phosphodiesterase 4C (Homo sapiens) (Q08493 whole entry): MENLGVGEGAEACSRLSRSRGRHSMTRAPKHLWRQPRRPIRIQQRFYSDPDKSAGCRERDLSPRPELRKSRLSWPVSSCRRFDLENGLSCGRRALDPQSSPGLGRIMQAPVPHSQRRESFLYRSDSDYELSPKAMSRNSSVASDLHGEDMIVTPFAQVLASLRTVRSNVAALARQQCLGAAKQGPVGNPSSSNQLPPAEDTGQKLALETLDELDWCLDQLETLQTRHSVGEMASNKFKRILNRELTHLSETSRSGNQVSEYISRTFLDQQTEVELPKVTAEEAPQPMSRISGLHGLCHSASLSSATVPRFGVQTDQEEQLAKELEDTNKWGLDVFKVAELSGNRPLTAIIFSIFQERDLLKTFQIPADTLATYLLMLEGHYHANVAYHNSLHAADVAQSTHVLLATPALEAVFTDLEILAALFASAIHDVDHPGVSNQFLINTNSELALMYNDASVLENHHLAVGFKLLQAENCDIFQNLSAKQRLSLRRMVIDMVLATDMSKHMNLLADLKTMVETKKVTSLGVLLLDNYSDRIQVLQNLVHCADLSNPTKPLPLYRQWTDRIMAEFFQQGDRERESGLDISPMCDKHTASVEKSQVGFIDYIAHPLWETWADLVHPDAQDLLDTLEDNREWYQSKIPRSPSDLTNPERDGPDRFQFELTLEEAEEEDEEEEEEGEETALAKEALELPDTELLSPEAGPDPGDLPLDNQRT
Sequence of CYP2C9 (P11712 whole entry): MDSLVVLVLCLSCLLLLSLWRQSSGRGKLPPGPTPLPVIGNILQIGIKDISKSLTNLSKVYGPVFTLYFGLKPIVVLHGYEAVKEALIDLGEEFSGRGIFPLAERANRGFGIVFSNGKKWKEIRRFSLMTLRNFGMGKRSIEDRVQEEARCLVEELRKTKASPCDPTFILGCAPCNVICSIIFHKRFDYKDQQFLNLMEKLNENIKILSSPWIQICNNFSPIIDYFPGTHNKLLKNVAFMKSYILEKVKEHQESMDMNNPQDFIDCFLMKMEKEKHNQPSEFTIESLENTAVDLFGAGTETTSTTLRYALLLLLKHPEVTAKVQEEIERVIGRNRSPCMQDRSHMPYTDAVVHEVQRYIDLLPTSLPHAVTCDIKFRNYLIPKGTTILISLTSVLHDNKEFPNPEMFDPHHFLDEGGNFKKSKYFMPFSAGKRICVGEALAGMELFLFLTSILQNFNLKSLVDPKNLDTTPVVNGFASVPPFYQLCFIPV
Sequence of CYP2C19 (P33261 whole entry): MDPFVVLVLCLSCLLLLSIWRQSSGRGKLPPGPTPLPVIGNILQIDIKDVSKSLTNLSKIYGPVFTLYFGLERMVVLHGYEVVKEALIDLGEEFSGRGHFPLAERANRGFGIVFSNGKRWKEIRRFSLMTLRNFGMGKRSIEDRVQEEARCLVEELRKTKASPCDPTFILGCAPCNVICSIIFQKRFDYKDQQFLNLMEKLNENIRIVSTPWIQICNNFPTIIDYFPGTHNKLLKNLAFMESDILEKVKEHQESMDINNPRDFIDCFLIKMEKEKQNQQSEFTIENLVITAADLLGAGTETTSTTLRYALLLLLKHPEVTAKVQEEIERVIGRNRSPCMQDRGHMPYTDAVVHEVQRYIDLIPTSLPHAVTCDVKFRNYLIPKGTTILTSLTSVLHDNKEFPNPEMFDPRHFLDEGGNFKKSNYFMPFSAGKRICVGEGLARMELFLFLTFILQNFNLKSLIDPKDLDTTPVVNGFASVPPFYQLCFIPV

Regarding `Cc1cc(OCC(=O)O)cc(C)c1Cc1ccc(N)c(C(C)C)c1`, the inhibition at 24 h, 10 µM in data set [1], in data set [3] and in data set [5] was < 50% in each case. Also, the inhibition at 48 h, 10 µM in [2], in [4] and in [6] was < 50% throughout. Besides, the inhibition at 10 µM at CYP1A2 is < 50%; at CYP2C9, < 50%; on CYP2C19, < 50%; against hERG (KCNH2) it was < 40%; on SIRT7, < 50%; at HDAC4, < 50%. For the same molecule, the inhibition at 10 µM against HDAC6, on HDAC9 and at Aurora B was < 50% in each case. Besides, the inhibition in data set [7] is < 50%.

As for `Cc1cc(OCC(=O)O)cc(C)c1Cc1ccc(O)cc1`, the inhibition at 24 h, 10 µM in [1], in data set [3] and in data set [5] was < 50% in each case. The inhibition at 48 h, 10 µM in data set [2], in [4] and in data set [6] was < 50% throughout. The inhibition at 10 µM on CYP1A2 was < 50%; on CYP2C9 it was < 50%; at CYP2C19, < 50%; against hERG (KCNH2) it was < 25%; against SIRT7, < 50%; against HDAC4, < 50%. The inhibition at 10 µM at HDAC6, against HDAC9 and at Aurora B was < 50% throughout. Moreover, the inhibition in [7] was < 50%.

Consider `CC(=O)Nc1ccc(Cc2c(C)cc(OCC(=O)O)cc2C)cc1C(C)C`, for which the inhibition at 24 h, 10 µM in data set [1], in [3] and in [5] was < 50% throughout. For the same molecule, the inhibition at 48 h, 10 µM in data set [2], in data set [4] and in data set [6] was < 50% throughout. The inhibition at 10 µM on CYP1A2 is < 50%; against CYP2C9, < 50%; at CYP2C19, < 50%; against hERG (KCNH2), < 25%; on SIRT7 it was < 50%; against HDAC4 it was < 50%. Moreover, the inhibition at 10 µM against HDAC6, against HDAC9 and on Aurora B was < 50% in each case. The inhibition in [7] is < 50%.
